Measured values reported in paper PMC8303988, “Cholate Disrupts Regulatory Functions of Cytochrome c Oxidase” (Cells, 2021).

System: T1, cholate-CytOx; isolated cytochrome c oxidase from bovine heart
T1 construct: gene MT-CO1; with Cytochrome c oxidase subunit 1; Cytochrome c oxidase subunit 2; Cytochrome c oxidase subunit 3; Cytochrome c oxidase subunit 5A, mitochondrial; Cytochrome c oxidase subunit 5B, mitochondrial; Cytochrome c oxidase subunit 6A2, mitochondrial; Cytochrome c oxidase subunit 6B1; Cytochrome c oxidase subunit 6C; Cytochrome c oxidase subunit 7A1, mitochondrial; Cytochrome c oxidase subunit 7B, mitochondrial; Cytochrome c oxidase subunit 7C, mitochondrial; Cytochrome c oxidase subunit 8B, mitochondrial
Test: UV/VIS absorption spectroscopy, displacement of bound cholate by ADP
Format: binding, Bos taurus
Conditions: 0 °C, pH 7.4; cholate bound during purification; nucleotide sites

C[C@H](CCC(=O)O)[C@H]1CC[C@H]2[C@@H]3[C@H](O)C[C@@H]4C[C@H](O)CC[C@]4(C)[C@H]3C[C@H](O)[C@]12C [cholate]
UV/VIS absorption spectroscopy, displacement of bound cholate by ADP: exchange of cholate by ADP is a very slow process with a half-time of about
